Measurements: patent US20260159503A1, “1,2,3-TRIAZOLE LINKER-CONTAINING COMPOUNDS” (HIGH POINT UNIVERSITY, priority 2024, published 2026)

Legend:
[1] = biological target: T1, human D3R (Homo sapiens, UniProt P35462); assay: DiscoverX PathHunter β-arrestin recruitment assay, D3R; assay type: cell-based; conditions: triazole; antagonist; read-out: potency, β-arrestin recruitment at the D3R
T1 construct: host or cells: CHO-K1
Experimental: (§1) Luminescence was measured on a Hamamatsu FDSS μCell reader.
(§2) Efficacy/antagonist % (Ant. %) values were obtained from nonlinear regression of meaned data obtained from at least three independent experiments with triplicate measures. Values are presented as means±SEM.

[2] = biological target: T2, human D2R long isoform (Homo sapiens, UniProt P14416); assay: DiscoverX PathHunter β-arrestin recruitment assay, D2R; assay type: cell-based; conditions: triazole; antagonist; read-out: potency, β-arrestin recruitment at the D2R
T2 construct: host or cells: CHO-K1
Experimental: as §1, §2

T1 sequence (P35462 whole entry): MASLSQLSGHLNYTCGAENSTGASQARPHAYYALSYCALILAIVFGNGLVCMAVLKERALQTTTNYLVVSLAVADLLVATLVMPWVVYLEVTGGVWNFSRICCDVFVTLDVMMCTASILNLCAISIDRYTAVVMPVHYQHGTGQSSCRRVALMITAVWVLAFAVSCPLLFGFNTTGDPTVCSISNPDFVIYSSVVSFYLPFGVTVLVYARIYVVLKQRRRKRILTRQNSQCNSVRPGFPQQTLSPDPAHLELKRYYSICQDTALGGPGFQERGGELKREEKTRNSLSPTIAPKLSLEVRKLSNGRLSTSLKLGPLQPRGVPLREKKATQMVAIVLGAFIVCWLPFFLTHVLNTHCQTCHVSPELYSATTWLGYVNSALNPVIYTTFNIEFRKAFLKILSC
T2 sequence (P14416 whole entry, canonical isoform): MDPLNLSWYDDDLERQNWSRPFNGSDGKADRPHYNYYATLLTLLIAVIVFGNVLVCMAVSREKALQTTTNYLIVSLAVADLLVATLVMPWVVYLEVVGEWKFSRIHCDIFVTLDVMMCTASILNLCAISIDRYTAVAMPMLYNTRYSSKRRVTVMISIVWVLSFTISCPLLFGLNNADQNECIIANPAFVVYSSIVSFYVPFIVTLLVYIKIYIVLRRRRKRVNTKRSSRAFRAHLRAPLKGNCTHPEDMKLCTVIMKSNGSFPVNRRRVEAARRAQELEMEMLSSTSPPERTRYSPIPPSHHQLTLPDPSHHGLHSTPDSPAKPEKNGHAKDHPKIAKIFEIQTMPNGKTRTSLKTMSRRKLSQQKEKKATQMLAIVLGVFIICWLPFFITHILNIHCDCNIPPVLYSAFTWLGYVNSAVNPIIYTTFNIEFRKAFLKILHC

IC50 [1]: > 6 µM
IC50 [2]: > 6 µM
SMILES: Cc1cccc(-n2cc(CN3CCC(c4ccccc4)CC3)nn2)c1 [Compound 14, 4-phenyl-1-((1-(m-tolyl)-1H-1,2,3-triazol-4-yl)methyl)piperidine]
